# Source: ChEMBL document CHEMBL1201862, “PubChem BioAssay data set” (2004)
#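 48-hour exposure; five concentrations; linearly interpolated endpoints. GI50 marks 50% less growth.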 Activity calls are given as the source filed them. No stated cut-off is given here; in the data, active = GI50 up to about 1.1 µM and inactive = higher.
# Tests used:
# Assay in all cases: inhibition of tumour cell growth, NCI panel, 48 h
# HOP-62 = system: HOP-62
# NCI-H23 = system: NCI-H23
# K562 = system: K562
# PC-3 = system: PC-3
# NCI-H226 = system: NCI-H226
# SN12C = system: SN12C
# CCRF-CEM = system: CCRF-CEM
# MDA-MB-231 = system: MDA-MB-231
# SNB-75 = system: SNB-75
# RPMI-8226 = system: RPMI-8226
# Hs-578T = system: Hs-578T
# BT-549 = system: BT-549
# NCI-H460 = system: NCI-H460
# T47D = system: T47D
# LOX IMVI = system: LOX IMVI
# SK-OV-3 = system: SK-OV-3
# UO-31 = system: UO-31
# UACC-62 = system: UACC-62
# RXF 393 = system: RXF 393
# HCC 2998 = system: HCC 2998
SMILES,GI50 (HOP-62),GI50 (NCI-H23),GI50 (K562),GI50 (PC-3),GI50 (NCI-H226),GI50 (SN12C),GI50 (CCRF-CEM),GI50 (MDA-MB-231),GI50 (SNB-75),GI50 (RPMI-8226),GI50 (Hs-578T),GI50 (BT-549),GI50 (NCI-H460),GI50 (T47D),GI50 (LOX IMVI),GI50 (SK-OV-3),GI50 (UO-31),GI50 (UACC-62),GI50 (RXF 393),GI50 (HCC 2998)
O=C(O)c1cncc(C(=O)O)c1,> 100 µM (inactive),> 100 µM (inactive),> 100 µM (inactive),> 100 µM (inactive),> 100 µM (inactive),> 100 µM (inactive),> 100 µM (inactive),> 100 µM (inactive),> 100 µM (inactive),> 100 µM (inactive),> 100 µM (inactive),> 100 µM (inactive),> 100 µM (inactive),> 100 µM (inactive),> 100 µM (inactive),> 100 µM (inactive),> 100 µM (inactive),> 100 µM (inactive),> 100 µM (inactive),
Cc1cccc(C(C)O)n1 (centres undefined),> 100 µM (inactive),> 100 µM (inactive),> 100 µM (inactive),> 100 µM (inactive),> 100 µM (inactive),> 100 µM (inactive),> 100 µM (inactive),> 100 µM (inactive),> 100 µM (inactive),,> 100 µM (inactive),> 100 µM (inactive),> 100 µM (inactive),> 100 µM (inactive),,> 100 µM (inactive),> 100 µM (inactive),> 100 µM (inactive),,> 100 µM (inactive)
COc1cc2c(/C=C3/C(=O)Nc4cccc(Cl)c43)c(Cl)[nH]c2cc1C,2.15 µM (inactive),2.51 µM (inactive),1.76 µM (inactive),2.68 µM (inactive),1.44 µM (inactive),1.32 µM (inactive),1.56 µM (inactive),1.08 µM (active),1.44 µM (inactive),1.93 µM (inactive),1.98 µM (inactive),1.46 µM (inactive),1.72 µM (inactive),1.43 µM (inactive),1.8 µM (inactive),2.21 µM (inactive),3.73 µM (inactive),1.95 µM (inactive),2 µM (inactive),
Cc1ccccc1/N=N/c1ccc(/N=N/c2c(O)ccc3ccccc23)c(C)c1 [SCARLET RED],38 µM (inactive),> 100 µM (inactive),> 100 µM (inactive),> 100 µM (inactive),> 100 µM (inactive),> 100 µM (inactive),> 10 µM (inactive),> 100 µM (inactive),72.1 µM (inactive),> 100 µM (inactive),44.2 µM (inactive),> 100 µM (inactive),,> 100 µM (inactive),> 100 µM (inactive),> 100 µM (inactive),> 100 µM (inactive),> 100 µM (inactive),> 100 µM (inactive),
CN1C2CCC1CN(CCOC(c1ccc(F)cc1)c1ccc(F)cc1)C2,21.4 µM (inactive),69.7 µM (inactive),20 µM (inactive),28.6 µM (inactive),32.3 µM (inactive),47.9 µM (inactive),36.7 µM (inactive),22.9 µM (inactive),26.5 µM (inactive),23.9 µM (inactive),42.7 µM (inactive),43.4 µM (inactive),20.9 µM (inactive),24.3 µM (inactive),19.8 µM (inactive),42.3 µM (inactive),33.2 µM (inactive),,16.5 µM (inactive),
Nc1ccc(C(=O)O)cc1.Nc1nc(N)c2nc[nH]c2n1,20.7 µM (inactive),23.5 µM (inactive),20 µM (inactive),22.3 µM (inactive),> 100 µM (inactive),39 µM (inactive),19.6 µM (inactive),45.4 µM (inactive),2.44 µM (inactive),12.1 µM (inactive),> 100 µM (inactive),78 µM (inactive),21.6 µM (inactive),3.27 µM (inactive),24.7 µM (inactive),34.8 µM (inactive),11.3 µM (inactive),11.1 µM (inactive),12.1 µM (inactive),
C1=C(c2ccccc2)SC=C(c2ccccc2)S1,> 100 µM (inactive),72.8 µM (inactive),21 µM (inactive),> 100 µM (inactive),29 µM (inactive),29.9 µM (inactive),57.1 µM (inactive),32.2 µM (inactive),1.68 µM (inactive),33.3 µM (inactive),44 µM (inactive),17.9 µM (inactive),29.5 µM (inactive),53.3 µM (inactive),36.9 µM (inactive),27.5 µM (inactive),60.5 µM (inactive),35.9 µM (inactive),1.05 µM (active),
O=C(O)C1C2C=CC(O2)C1C(=O)Nc1ncccn1 (centres undefined),> 100 µM (inactive),> 100 µM (inactive),97.9 µM (inactive),> 100 µM (inactive),> 100 µM (inactive),> 100 µM (inactive),> 100 µM (inactive),> 100 µM (inactive),> 100 µM (inactive),> 100 µM (inactive),> 100 µM (inactive),> 100 µM (inactive),> 100 µM (inactive),> 100 µM (inactive),> 100 µM (inactive),> 100 µM (inactive),> 100 µM (inactive),> 100 µM (inactive),> 100 µM (inactive),
COc1ccc2c(n1)Sc1nc3ccccc3nc1N2,16.1 µM (inactive),17.9 µM (inactive),30.3 µM (inactive),89.5 µM (inactive),10.7 µM (inactive),21 µM (inactive),29.4 µM (inactive),13.2 µM (inactive),25.5 µM (inactive),> 100 µM (inactive),27.9 µM (inactive),41.6 µM (inactive),63.1 µM (inactive),> 100 µM (inactive),31.4 µM (inactive),37.2 µM (inactive),20 µM (inactive),7.16 µM (inactive),32.2 µM (inactive),
O=[N+]([O-])C(=C1NCCN1)/C(Cl)=C(/Cl)N1CCOCC1,> 100 µM (inactive),> 100 µM (inactive),> 100 µM (inactive),> 100 µM (inactive),> 100 µM (inactive),> 100 µM (inactive),> 100 µM (inactive),> 100 µM (inactive),> 100 µM (inactive),> 100 µM (inactive),> 100 µM (inactive),> 100 µM (inactive),> 100 µM (inactive),> 100 µM (inactive),,> 100 µM (inactive),> 100 µM (inactive),> 100 µM (inactive),,> 100 µM (inactive)
NC(CC1=CS(=O)(=O)c2ccc(Cl)cc21)C(=O)O (centres undefined),> 100 µM (inactive),> 100 µM (inactive),> 100 µM (inactive),> 100 µM (inactive),> 100 µM (inactive),> 100 µM (inactive),,> 100 µM (inactive),20.6 µM (inactive),> 100 µM (inactive),70.5 µM (inactive),> 100 µM (inactive),89.9 µM (inactive),> 100 µM (inactive),> 100 µM (inactive),> 100 µM (inactive),,> 100 µM (inactive),> 100 µM (inactive),
COC(=O)C1CCC(=S)N1C(=O)OCc1ccccc1 (centres undefined),> 100 µM (inactive),> 100 µM (inactive),> 100 µM (inactive),> 100 µM (inactive),,,3.61 µM (inactive),> 100 µM (inactive),> 100 µM (inactive),> 100 µM (inactive),49.4 µM (inactive),> 100 µM (inactive),39.5 µM (inactive),> 100 µM (inactive),,> 100 µM (inactive),95.7 µM (inactive),> 100 µM (inactive),28.4 µM (inactive),62.1 µM (inactive)
CN1C(=S)C(c2ccccc2)Sc2ccccc21 (centres undefined),> 100 µM (inactive),55.7 µM (inactive),20.7 µM (inactive),17.6 µM (inactive),90.6 µM (inactive),> 100 µM (inactive),8.77 µM (inactive),> 100 µM (inactive),35.7 µM (inactive),> 100 µM (inactive),35.6 µM (inactive),42.7 µM (inactive),27.8 µM (inactive),78.5 µM (inactive),77.1 µM (inactive),42.8 µM (inactive),35.6 µM (inactive),> 100 µM (inactive),50.2 µM (inactive),
Cc1cccc2c(=O)c3cccc([C@H](C)C(=O)O)c3oc12,> 100 µM (inactive),> 100 µM (inactive),> 100 µM (inactive),> 100 µM (inactive),> 100 µM (inactive),> 100 µM (inactive),> 100 µM (inactive),> 100 µM (inactive),,> 100 µM (inactive),> 100 µM (inactive),> 100 µM (inactive),> 100 µM (inactive),> 100 µM (inactive),> 100 µM (inactive),> 100 µM (inactive),> 100 µM (inactive),> 100 µM (inactive),,> 100 µM (inactive)
NCCN1C(=O)c2cc(Cl)c(Cl)cc2C1(O)c1ccc(Cl)cc1 (centres undefined),1.85 µM (inactive),2.69 µM (inactive),1.91 µM (inactive),4.98 µM (inactive),,3.72 µM (inactive),3.61 µM (inactive),2.01 µM (inactive),2.28 µM (inactive),2.44 µM (inactive),2.74 µM (inactive),3.62 µM (inactive),1.79 µM (inactive),2.11 µM (inactive),1.7 µM (inactive),13.5 µM (inactive),4.86 µM (inactive),1.79 µM (inactive),1.59 µM (inactive),
